In patent US20240417425A1 (priority 2021, published 2024):
Like-named read-outs stand apart in the source and are kept apart here.

Experiments:
Na^+, K^+-ATPase = details: for Inhibition of brain microsomal Na+,K+-ATPase activity, potency in comparison to Bufalin: FIGS. 2 and 3
in vitro = details: human
NCI-60 cell line panel = test: NCI-60 one-dose cancer cell growth testing; type: cell-based, human; details: FIGS. 13-15
Protocol: The anti-proliferative activity of the target compounds was tested against the NCI-60 cell line panel. The screening was performed at the National Cancer Institute (NCI), Bethesda, Maryland, USA (www.dtp.nci.nih.gov), according to their standard protocol (https://dtp.cancer.gov/discovery_development/nci-60/methodology.htm).
In the anti-cancer studies were performed at the NCI, NIH in the one-dose testing of the NCI-60 project (https://dtp.cancer.gov/discovery_development/nci-60/methodology.htm). The numbers reported are growth relative to the no-drug control, and relative to the time zero number of cells. This allows detection of both growth inhibition (values between 0 and 100) and lethality (values less than 0). For example, a value of 100 means no growth inhibition. A value of 40 would mean 60% growth inhibition. A value of 0 means no net growth over the course of the experiment. A value of −40 would mean 40% lethality. A value of −100 means all cells are dead.

[1] = test system: Neuroblastoma (SH-SY5Y) cells
quail cardiomyocytes = details: for Effect on cardiomyocytes contractility compared to digoxin: all concentrations tested, 10 minutes and 30 minutes after addition (FIGS. 5, 6)
[2] = test system: Chikungunya virus (CHIKV); details: human cells; cited from earlier work
[3] = test system: Japanese Encephalitis Virus; details: cited from earlier work
[4] = test system: MHV, FIPV, Middle East respiratory syndrome (MERS)-CoV, VSV, IAV; details: cited from earlier work
herpes simplex virus = details: cited from earlier work
[5] = test system: transmissible gastroenteritis coronavirus (TGEV); details: swine testicular (ST) cells; cited from earlier work
[6] = test system: Human respiratory syncytial virus (RSV); details: human small airway epithelial cells; cited from earlier work
influenza virus = details: cited from earlier work

Row | Compound | Inhibition of brain microsomal Na+,K+-ATPase activity, potency in comparison to Bufalin (Na^+, K^+-ATPase) | viability at 5 µM (in vitro) | viability at 25 µM (in vitro) | viability at 50 µM (in vitro) | viability at 100 µM (in vitro) | Most sensitive cancer cell line (NCI-60 cell line panel) | Cytotoxic potency in comparison to the other steroids [1] | Effect on cardiomyocytes contractility compared to digoxin (quail cardiomyocytes) | Effect on infection by CHIKV [2] | Efficiency against Japanese Encephalitis Virus [3] | also measured
1 | C[C@]12CC=CCC1CCC1C2CC[C@]2(C)[C@@H](c3ccc(=O)oc3)CC[C@]12O (stereo partly drawn) [Compound 1, bufalin 2,3-ene] | approximately the same potency as Bufalin | 32.2% | 13.8% | 5.62% | 1.28% | SNB-19 | lower cytotoxic potency | stronger effect on contractility than digoxin | – | – | –
2 | C[C@]12CCC=CC1CCC1C2CC[C@]2(C)[C@@H](c3ccc(=O)oc3)CC[C@]12O (stereo partly drawn) [Compound 2, bufalin 3,4-ene] | more potent inhibitor | 53.8% | 24.7% | 11.5% | 6.13% | SNB-19 | lower cytotoxic potency | stronger effect on contractility than digoxin | – | – | Inhibition of Na+,K+-ATPase activity at very low concentrations in comparison to Bufalin (Na^+, K^+-ATPase; very low (nanomolar) concentrations): better than Bufalin
3 | C[C@H]1O[C@@H](O[C@H]2[C@@H](O)C[C@H](O[C@H]3[C@@H](O)C[C@H](O[C@H]4CC[C@@]5(C)[C@H](CC[C@@H]6[C@@H]5C[C@@H](O)[C@]5(C)[C@@H](C7=CC(=O)OC7)CC[C@]65O)C4)O[C@@H]3C)O[C@@H]2C)C[C@H](O)[C@@H]1O [Digoxin, digoxin] | – | 23.4% | 1.02% | 0.26% | 2.55% | – | – | – | dose-dependent decrease in infection | robust efficiency against the virus | –
4 | C[C@]12CC[C@H](O)C[C@H]1CC[C@@H]1[C@@H]2CC[C@]2(C)[C@@H](c3ccc(=O)oc3)CC[C@]12O [Bufalin, bufalin] | – | – | – | – | – | – | – | – | – | – | Effect on infection of cells with viruses [4]: inhibited infection of cells with MHV, FIPV, Middle East respiratory syndrome (MERS)-CoV, and VSV, but not IAV
5 | C[C@@H]1O[C@@H](O[C@H]2C[C@@H](O)[C@]3(CO)[C@H]4[C@H](O)C[C@]5(C)[C@@H](C6=CC(=O)OC6)CC[C@]5(O)[C@@H]4CC[C@]3(O)C2)[C@H](O)[C@H](O)[C@H]1O [Ouabain, ouabain] | – | 6.26% | 1.92% | 0.51% | 4.09% | – | – | – | dose-dependent decrease in infection | robust efficiency against the virus | Effect on infection of cells with viruses ([4]; nM concentrations): inhibited infection of cells with MHV, FIPV, Middle East respiratory syndrome (MERS)-CoV, and VSV, but not IAV; Reduction of expression of viral immediate-early and early genes (herpes simplex virus): at least 5 fold; Effect on TGEV-induced production of IL-6 [5]: inhibit the TGEV-induced production of IL-6 in a dose dependent manner; Effect on RSV entry [6]: inhibited; Effect on influenza virus replication (influenza virus): decrease influenza virus replication
6 | NC[C@H](O)c1ccc(O)c(O)c1 [noradrenaline] | – | – | – | – | – | – | – | – | – | – | Effect on cardiomyocytes contractility (quail cardiomyocytes; dose-dependently, FIG. 4): increased
